Reference: paper PMC4521925, “17β-Hydroxysteroid Dehydrogenase Type 2 Inhibition: Discovery of Selective and Metabolically Stable Compounds Inhibiting Both the Human Enzyme and Its Murine Ortholog” (PLoS ONE, 2015)

Columns and labels:
m17β-HSD2 = biological target: T1, m17β-HSD2 (Mus musculus, UniProt P51658); assay: Inhibition of m17β-HSD2 in cell-free assay; format: biochemical; details: for inhibition at 1 µM: read-out: % inh. at 1 μM m17β-HSD2
T1 construct: The microsomal fraction (m17β-HSD2) was obtained from mouse liver as described for h17β-HSD2; tissue Pharmacelsus GmbH (mouse livers); host or cells: mouse liver, microsomal fraction
T1 sequence (P51658 1-381): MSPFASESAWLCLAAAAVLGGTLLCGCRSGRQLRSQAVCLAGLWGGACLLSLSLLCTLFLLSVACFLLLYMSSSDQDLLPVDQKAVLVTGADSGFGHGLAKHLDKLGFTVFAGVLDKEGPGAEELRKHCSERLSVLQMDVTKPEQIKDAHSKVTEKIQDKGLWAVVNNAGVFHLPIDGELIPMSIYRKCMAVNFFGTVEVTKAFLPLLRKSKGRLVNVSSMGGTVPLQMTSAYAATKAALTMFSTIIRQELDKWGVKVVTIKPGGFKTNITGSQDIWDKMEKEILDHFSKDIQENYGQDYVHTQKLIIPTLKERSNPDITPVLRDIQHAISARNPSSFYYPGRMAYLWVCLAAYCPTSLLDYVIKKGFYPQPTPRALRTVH
Description: (§1) h17β-HSD2, h17β-HSD1, m17β-HSD2 and m17β-HSD1 cell-free assays were performed similarly, by incubating enzyme, tritiated substrate, cofactor and inhibitor, according to described procedures.
The microsomal fraction (m17β-HSD2) was obtained from mouse liver as described for h17β-HSD2. Inhibitory activities were evaluated by a method identical to the one described for the human enzyme.
(§2) Inhibitory activities were evaluated following an established method with minor modifications. Briefly, the enzyme preparation was incubated with NAD^+ [1500 μM] in the presence of potential inhibitors at 37C in a phosphate buffer (50 mM) supplemented with 20% of glycerol and EDTA 1mM. Inhibitor stock solutions were prepared in DMSO. Final concentration of DMSO was adjusted to 1% in all samples. […] After 20 min, the incubation was stopped with HgCl2 and the mixture was extracted with ether. After evaporation, the steroids were dissolved in acetonitrile/water (45:55). […] Detection and quantification of the steroids were performed using a radioflow detector (Berthold Technologies, Bad Wildbad). […] Each value was calculated from at least two independent experiments.

[1] = Metabolic stability in a cell-free assay (liver S9 fraction); format: in vitro ADME; details: pooled liver S9 fraction; human liver S9 fraction 1 mg/ml, NADPH regenerating system, UDPGA, PAPS, 37°C; inhibitor 1 μM; read-out: Inhibitor t1/2
Description: Compounds 7a, 8a, 16a, 19a, 22a, 27a and 27 were tested according to established method[33–35]For evaluation of phase I and II metabolic stability 1 μM compound was incubated with 1 mg/ml pooled mammalian liver S9 fraction (BD Gentest), 2 mM NADPH regenerating system, 1 mM UDPGA and 0.1 mM PAPS at 37°C for 0, 5, 15 and 60 minutes at a final volume of 100 μL. The incubation was stopped by precipitation of S9 enzymes with 2 volumes of cold acetonitrile containing internal standard. Concentration of the remaining test compound at the different time points was analyzed by LC-MS/MS and used to determine half-life (t1/2).

h17β-HSD1 = biological target: T2, h17β-HSD1 (Homo sapiens, UniProt P14061); assay: Inhibition of h17β-HSD1 in cell-free assay; format: biochemical; details: human placental cytosolic fraction, substrate E1 [500 nM], cofactor NADH [500 μM]; for inhibition at 1 µM: read-out: % inh. at 1 μM h17β-HSD1
T2 construct: h17β-HSD1 was obtained after precipitation with ammonium sulfate from the cytosolic fraction; from tissue; host or cells: human placenta, cytosolic fraction
T2 sequence (P14061 1-328): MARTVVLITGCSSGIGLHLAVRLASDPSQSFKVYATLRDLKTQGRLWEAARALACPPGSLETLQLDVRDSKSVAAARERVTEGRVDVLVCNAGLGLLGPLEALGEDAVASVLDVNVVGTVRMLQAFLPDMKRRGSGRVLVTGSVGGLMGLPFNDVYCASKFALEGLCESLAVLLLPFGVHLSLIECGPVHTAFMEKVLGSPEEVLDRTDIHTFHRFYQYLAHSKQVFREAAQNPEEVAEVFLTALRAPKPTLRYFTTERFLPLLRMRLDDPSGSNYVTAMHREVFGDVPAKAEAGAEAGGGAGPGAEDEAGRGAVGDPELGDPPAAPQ
Description: as §1
(§3) Cytosolic (h17β-HSD1) and microsomal (h17β-HSD2) fractions were obtained from human placenta according to previously described procedures. Fresh tissue was homogenized and the enzymes were separated from the mitochondria, cell membrane. Nucleus and other rests by fractional centrifugation at 1000 g, 10.000 g and 150.000 g. The pellet fraction containing the microsomal h17β-HSD2 was used for the determination of h17β-HSD2 inhibition, while h17β-HSD1 was obtained after precipitation with ammonium sulfate from the cytosolic fraction for use of testing of h17β-HSD1 inhibition. Aliquots containing h17β-HSD1 or h17β-HSD2 were stored frozen.
(§4) The 17β-HSD1 inhibition assay was performed similarly to the h17β-HSD2 test. The human cytosolic enzyme was incubated with NADH [500 μM] while the mouse recombinant enzyme was reacted with NADPH [500 μM].Test compound and a mixture of unlabelled- and [^3H]-E1 (final concentration: 500 nM, 0.15 μCi) were added and mixed for 10 min at 37°C. Further treatment of the samples and HPLC separation was carried out as mentioned above for h17β-HSD2.

h17β-HSD2 = biological target: T3, h17β-HSD2 (Homo sapiens, UniProt P37059); assay: Inhibition of h17β-HSD2 in cell-free assay; format: biochemical; parameters: from tissue; host or cells: human placenta, microsomal fraction; details: for s.f. (selectivity factor) = IC50(17β-HSD1)/IC50(17β-HSD2): human enzymes, cell-free; for inhibition at 1 µM: read-out: % inh. at 1 μM h17β-HSD2
T3 sequence (P37059 1-387): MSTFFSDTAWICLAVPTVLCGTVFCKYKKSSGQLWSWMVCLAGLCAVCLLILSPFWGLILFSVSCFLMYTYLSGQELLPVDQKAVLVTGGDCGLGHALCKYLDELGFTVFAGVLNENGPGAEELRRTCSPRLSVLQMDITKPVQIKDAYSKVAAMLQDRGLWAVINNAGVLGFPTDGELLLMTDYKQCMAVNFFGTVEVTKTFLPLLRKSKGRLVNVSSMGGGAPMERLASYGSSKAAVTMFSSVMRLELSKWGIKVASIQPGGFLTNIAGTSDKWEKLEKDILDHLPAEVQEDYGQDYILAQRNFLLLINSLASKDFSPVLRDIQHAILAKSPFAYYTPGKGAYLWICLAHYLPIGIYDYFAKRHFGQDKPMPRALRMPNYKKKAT
Description: as §1, §3, §2

m17β-HSD1 = biological target: T4, m17β-HSD1 (Mus musculus, UniProt P51656); assay: Inhibition of m17β-HSD1 in cell-free assay; format: biochemical; details: recombinant m17β-HSD1, substrate E1 [500 nM], NADPH [500 μM]
T4 construct: host or cells: HEK 293 cells, transient transfection, 1000 g supernatant of the lysate
T4 sequence (P51656 1-344): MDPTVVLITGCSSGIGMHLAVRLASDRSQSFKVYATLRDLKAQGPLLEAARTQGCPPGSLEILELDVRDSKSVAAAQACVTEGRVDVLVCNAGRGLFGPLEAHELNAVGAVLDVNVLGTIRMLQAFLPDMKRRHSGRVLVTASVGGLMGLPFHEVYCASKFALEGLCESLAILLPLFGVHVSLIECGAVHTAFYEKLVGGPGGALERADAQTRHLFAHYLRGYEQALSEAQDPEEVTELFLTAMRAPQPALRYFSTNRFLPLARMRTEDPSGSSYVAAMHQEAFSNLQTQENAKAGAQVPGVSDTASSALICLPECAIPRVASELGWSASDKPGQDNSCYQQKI
Description: as §1
Recombinant m17β-HSD1 enzyme was produced by transfection of HEK 293 cells with a m17β-HSD1 expression plasmid (coding sequence of NM_010475 in pCMV6Entry vector, OriGene Technologies, Inc.) according to a described procedure. 48 hours after transfection cells were homogenized by sonication (3 x 10 s) in a buffer containing saccharose (40 mMTris, 250 mM saccharose, 5 mM EDTA, 7 mM DTT, 1 mM PMSF, pH 7,5). Cell lysate was centrifuged (1000 g, 15 min, 4°C) and 20% glycerol was added to the supernatant before aliquots were frozen and stored at -70°C.
as §4

ERα = biological target: T5, ERα (Homo sapiens, UniProt P03372); assay: Estrogen receptor affinity in a cell-free assay (ERα); format: binding; details: 1000-fold excess relative to E2; recombinant human ERα
T5 sequence (P03372 1-595): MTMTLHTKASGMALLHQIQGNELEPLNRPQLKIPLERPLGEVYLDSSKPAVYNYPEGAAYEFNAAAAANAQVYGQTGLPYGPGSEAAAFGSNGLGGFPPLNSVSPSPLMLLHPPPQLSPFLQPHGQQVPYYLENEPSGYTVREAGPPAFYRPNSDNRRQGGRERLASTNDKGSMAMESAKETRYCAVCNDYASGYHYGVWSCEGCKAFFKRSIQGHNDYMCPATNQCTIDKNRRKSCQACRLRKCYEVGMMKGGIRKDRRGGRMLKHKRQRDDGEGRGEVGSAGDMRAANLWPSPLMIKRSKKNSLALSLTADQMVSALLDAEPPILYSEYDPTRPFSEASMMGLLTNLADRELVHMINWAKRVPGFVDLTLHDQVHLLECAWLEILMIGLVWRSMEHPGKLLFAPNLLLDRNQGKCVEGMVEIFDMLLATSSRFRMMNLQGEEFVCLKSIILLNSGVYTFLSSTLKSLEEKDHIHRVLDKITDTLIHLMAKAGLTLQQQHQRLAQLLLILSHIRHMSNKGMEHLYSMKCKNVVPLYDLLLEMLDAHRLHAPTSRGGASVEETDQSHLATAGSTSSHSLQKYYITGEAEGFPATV
Description: (§5) The binding affinity of selected compounds to ERα and ERβ was determined according to the recommendations of the US Environmental Protection Agency (EPA) by their Endocrine Disruptor Screening Program (EDSP)[24] using recombinant human proteins.
(§6) The potential inhibitors were dissolved in DMSO (5% final concentration). […] After incubation, ligand-receptor complexes were selectively bound to hydroxyapatite (83.5 g/LinTE-buffer). The bound complex was washed three times and resuspended in ethanol. For radiodetection, scintillator cocktail (Quickszint 212, Zinsser Analytic, Frankfurt) was added and samples were measured in a liquid scintillation counter (1450 LSC & Luminescence Counter, Perkin Elmer).
(§7) After the assay was established and validated, a modification was made to increase throughput.

ERβ = ERβ (Homo sapiens, UniProt Q92731); assay: Estrogen receptor affinity in a cell-free assay (ERβ); format: binding; details: 1000-fold excess relative to E2; recombinant human ERβ
ERβ, sequence (Q92731 whole entry): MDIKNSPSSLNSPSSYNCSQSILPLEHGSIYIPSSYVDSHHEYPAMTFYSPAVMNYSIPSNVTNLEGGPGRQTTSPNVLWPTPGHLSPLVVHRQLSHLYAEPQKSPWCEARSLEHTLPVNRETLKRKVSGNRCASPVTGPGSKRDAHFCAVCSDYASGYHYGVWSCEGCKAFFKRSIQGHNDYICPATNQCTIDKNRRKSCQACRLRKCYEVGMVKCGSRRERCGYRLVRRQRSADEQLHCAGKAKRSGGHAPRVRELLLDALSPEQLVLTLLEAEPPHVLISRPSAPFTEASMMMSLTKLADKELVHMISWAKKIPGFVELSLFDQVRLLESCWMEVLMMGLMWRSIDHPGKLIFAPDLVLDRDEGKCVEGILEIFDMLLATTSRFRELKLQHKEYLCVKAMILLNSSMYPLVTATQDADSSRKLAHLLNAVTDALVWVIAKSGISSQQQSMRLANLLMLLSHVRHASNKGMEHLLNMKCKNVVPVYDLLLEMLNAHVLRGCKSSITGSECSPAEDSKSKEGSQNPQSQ
Description: as §5, §6, §7

| inhibition at 1 µM (h17β-HSD1) [%] | inhibition at 1 µM (h17β-HSD2) [%] | SMILES | inhibition at 1 µM (m17β-HSD2) [%] | half-life at 1 μM [1] [min] | melting point [°C] | IC50 (h17β-HSD1) [µM] | IC50 (h17β-HSD2) [nM] | s.f. (selectivity factor) = IC50(17β-HSD1)/IC50(17β-HSD2) (h17β-HSD2) | inhibition of m17β-HSD1 at 1 μM (m17β-HSD1) | IC50 (m17β-HSD2) [nM] | displacement of E2 from ERα (ERα) [%] | displacement of E2 from ERβ (ERβ) [%] |
| --- | --- | --- | --- | --- | --- | --- | --- | --- | --- | --- | --- | --- |
|  |  | COc1cccc(N(C)C(=O)c2ccc(-c3cccc(C)c3F)cc2)c1 [Compound 20a, 2'-Fluoro-N-(3-methoxyphenyl)-N,3'-dimethyl-[1,1'-biphenyl]-4-carboxamide] | 48 | 104 | 91 to 94 | 11.3 | 460 | 24 |  |  |  |  |
|  |  | Cc1cccc(N(C)C(=O)c2ccc(-c3ccc4c(c3)OCO4)cc2)c1 [Compound 23a, 4-(Benzo[d][1, 3]dioxol-5-yl)-N-methyl-N-(m-tolyl)benzamide] | 70 |  | 111 to 113 | 10.9 | 560 | 20 | None of the tested compounds showed any inhibition |  |  |  |
|  |  | COc1cccc(-c2ccc(C(=O)N(C)c3cccc(OC)c3)cc2)c1 [Compound 7a, 3'-Methoxy-N-(3-methoxyphenyl)-N-methyl-[1,1'-biphenyl]-4-carboxamide] |  |  | 131 to 134 | 6.4 | 330 | 20 |  | 290 | ≤ 20 | ≤ 20 |
|  |  | COc1cccc(N(C)C(=O)c2ccc(-c3cccc(Cl)c3)cc2)c1 [Compound 14a, 3'-Chloro-N-(3-methoxyphenyl)-N-methyl-[1,1'-biphenyl]-4-carboxamide] | 73 | 82 |  | 12.6 | 950 | 13 | None of the tested compounds showed any inhibition |  |  |  |
| 35 | 64 | COc1cccc(N(C)C(=O)c2ccc(-c3cccc(OC)c3F)cc2)c1 [Compound 19a, 2'-Fluoro-3'-methoxy-N-(3-methoxyphenyl)-N-methyl-[1,1'-biphenyl]-4-carboxamide] | 67 |  | 125 to 127 |  |  |  | None of the tested compounds showed any inhibition |  |  |  |
|  |  | COc1ccc(-c2ccc(C(=O)N(C)c3cccc(OC)c3)cc2)cc1 [Compound 10a, 4'-Methoxy-N-(3-methoxyphenyl)-N-methyl-[1,1'-biphenyl]-4-carboxamide] | 66 |  | 128 to 130 | 27 | 710 | 38 | None of the tested compounds showed any inhibition |  |  |  |
| < 10 | 44 | COc1cccc(-c2ccc(C(=O)N(C)c3cccc(C)c3)cc2)c1 [Compound 5a, 3'-Methoxy-N-methyl-N-(m-tolyl)-[1,1'-biphenyl]-4-carboxamide] | 56 | 116 |  |  |  |  |  |  |  |  |
